Patent US4161542A, “Heart active compounds” (priority 1975, dated 1979)
Where two headings read alike, the source gives them in different places.

Tests used:
[1] = system: β-receptors; experiment: β-blocking activity in reserpinized anesthetized cat (block of isoprenaline effect on heart rate and peripheral resistance; intrinsic activity); format: in vivo; conditions: for Intrinsic activity (increase in heart rate relative to basal): after final dose giving 100% blockade of isoprenaline response; for Block of isopren. ED50 HR (heart rate blockade) / Block of isopren. ED50 PR (peripheral resistance blockade): cumulative doses, vs isoprenaline i.v.; for Block of isopren. ED50 PR (peripheral resistance blockade): peripheral vascular resistance
Procedure: Anesthetized cats (males and females weighing 2.5-3.5 kg) were pretreated with reserpine (5 mg/kg bodyweight administered intramuscularly) about 16 hours before the experiments. The animals were pretreated with reserpine in order to eliminate the endogenous sympathetic control of heart rate and vascular smooth muscle tone. The cats were anesthetized with pentobarbital (30 mg/kg bodyweight administered i.p.) and artificially ventilated with room air. A bilateral vagotomy was performed in the neck. Blood pressure was obtained from a cannulated carotid artery and heart rate was registered from a cardiotachometer, triggered by the electrocardiogram (ECG). One […] artery was cannulated and perfused with the cat's own blood, delivered at a constant flow rate with a Watson Marlow roller pump. The perfusion pressure was recorded with a Statham pressure transducer. The blood flow rate was so adjusted that the initially recorded perfusion pressure was slightly above the systemic arterial mean blood pressure. In the studied hind limb the paw was excluded from the circulation by a tight ligature. An isoprenaline dose administered intravenously was established giving a submaximal heart rate (HR) increase and a submaximal decrease of peripheral vascular resistance (PR). The latter is shown as a drop of perfusion pressure.
To start the test, an initial dose of the test compound is injected into the animal. Ten minutes afterward the predetermined dose of isoprenaline is injected and the effect of the isoprenaline on the heart rate and peripheral resistance is noted. By comparing these observations with the normal response of the test animal to the predetermined dose of isoprenaline, the percent blockade of the HR and PR caused by the initial dose of test compound is calculated. The experiment is repeated with logrithmically increasing doses of the test compound (on a cumulative basis), alternating with the predetermined dose of isoprenaline every 10 minutes.
After the final dose of the test compound is administered--which is sufficient to cause a 100% blockade of the isoprenaline response--the intrinsic activity of the test compound is noted as the increase in heart rate relative to the basal heart rate of the test animal before the experiment began.

[2] = target: T1, α-receptor (Rattus norvegicus, UniProt P43140); experiment: α-blocking activity in isolated rat vas deferens (antagonism of noradrenaline contraction)
T1 construct: from tissue; host or cells: isolated rat vas deferens
T1 sequence (P43140 1-466): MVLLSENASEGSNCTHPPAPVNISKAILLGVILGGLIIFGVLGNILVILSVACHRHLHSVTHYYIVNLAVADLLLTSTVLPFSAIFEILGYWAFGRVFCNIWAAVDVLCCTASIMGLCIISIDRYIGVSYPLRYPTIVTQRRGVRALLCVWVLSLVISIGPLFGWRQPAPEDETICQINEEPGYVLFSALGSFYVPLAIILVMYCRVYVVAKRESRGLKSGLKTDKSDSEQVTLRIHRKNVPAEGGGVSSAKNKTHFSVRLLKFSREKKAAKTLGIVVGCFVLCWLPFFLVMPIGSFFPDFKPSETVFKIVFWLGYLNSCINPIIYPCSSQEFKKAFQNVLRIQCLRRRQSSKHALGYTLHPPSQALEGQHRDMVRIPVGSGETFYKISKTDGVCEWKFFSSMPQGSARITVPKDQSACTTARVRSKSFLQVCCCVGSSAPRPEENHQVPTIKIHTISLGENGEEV
Procedure: α-blocking activity was tested in isolated rat vas deferens. Rats were decapitated and the vas deferens was immediately dissected out and mounted in an oxygenated Krebs Ringer solution at 37° C. Noradrenaline administered to the bath caused α-receptor mediated contraction of vas deferens, which was recorded with an isometric tension transducer. Dose response curves to noradrenaline were constructed before and after three increasing doses of the test compound. By using Schildt plots pA2 values for α-receptor blockade were obtained. By definition pA2 =-log concentration of an antagonist (in this case, the test compound) which requires that the concentration of the related agonist (in this case noradrenaline) be doubled in the presence of the antagonist in order to produce the same effect as the agonist caused in the absence of the antagonist.

[3] = isolated rat vas deferens, Krebs Ringer, 37° C., noradrenaline agonist, Schildt plot, read-out: pA2 (α-receptor blockade) (converted)

Structure (SMILES) | Intrinsic activity (increase in heart rate relative to basal) [1] | Block of isopren. ED50 HR (heart rate blockade) [1] | Block of isopren. ED50 PR (peripheral resistance blockade) [1] | Kb [2, 3] | Kb [2]
Cc1ccccc1OCC(O)CNC(C)Cc1ccc(O)cc1 (stereo not shown) [Ex. 1, 3-[2-(4-hydroxyphenyl)-1-methylethylamino]-1-o-methylphenoxy-propanol-2] | +16 beats/min. | 0.07 mg/kg | 0.07 mg/kg | 0.158 µM | –
CCc1ccccc1OCC(O)CNC(C)Cc1ccc(O)cc1 (stereo not shown) [Ex. 2, 3-[2-(4-hydroxyphenyl)-1-methylethylamino]-1-o-ethylphenoxy-propanol-2] | +32 beats/min. | 0.11 mg/kg | 0.15 mg/kg | – | 0.0631 µM
C=CCc1ccccc1OCC(O)CNC(C)Cc1ccc(O)cc1 (stereo not shown) [Ex. 3, 3-[2-(4-hydroxyphenyl)-1-methylethylamino]-1-o-allylphenoxy-propanol-2] | +33 beats/min. | 0.7 mg/kg | 1.1 mg/kg | – | 0.0631 µM
C#CCOc1ccccc1OCC(O)CNC(C)Cc1ccc(O)cc1 (stereo not shown) [Ex. 4, 3-[2-(4-hydroxyphenyl)-1-methylethylamino]-1-o-propargyloxyphenoxy-propanol-2] | +22 beats/min. | 0.12 mg/kg | 0.35 mg/kg | 0.251 µM | –
Cc1ccccc1OCC(O)CNC(C)(C)Cc1ccc(O)cc1 (stereo not shown) [Ex. 5, 3-[2-(4-hydroxyphenyl)-1,1-dimethylethylamino]-1-o-methylphenoxy-propanol-2] | +62 beats/min. | 0.06 mg/kg | 0.3 mg/kg | 1.58 µM | –
CCc1ccccc1OCC(O)CNC(C)(C)Cc1ccc(O)cc1 (stereo not shown) [Ex. 6, 3-[2-(4-hydroxyphenyl)-1,1-dimethylethylamino]-1-o-ethylphenoxy-propanol-2] | +38 beats/min. | 0.04 mg/kg | 0.04 mg/kg | 0.158 µM | –
C=CCc1ccccc1OCC(O)CNC(C)(C)Cc1ccc(O)cc1 (stereo not shown) [Ex. 7, 3-[2-(4-hydroxyphenyl)-1,1-dimethylethylamino]-1-o-allylphenoxy-propanol-2] | +39 beats/min. | 0.09 mg/kg | 0.06 mg/kg | 0.398 µM | –
Cc1cccc(OCC(O)CNC(C)Cc2ccc(O)cc2)c1C (stereo not shown) [Ex. 9, 3-[2-(4-hydroxyphenyl)-1-methylethylamino]-1-[2,3-dimethylphenoxy]-propanol-2] | – | 0.26 mg/kg | 0.59 mg/kg | 0.794 µM | –
COc1ccccc1OCC(O)CNC(C)Cc1ccc(O)cc1 (stereo not shown) [Ex. 10, 3-[2-(4-hydroxyphenyl)-1-methylethylamino]-1-o-methoxyphenoxy-propanol-2] | +40 beats/min. | 0.04 mg/kg | 0.5 mg/kg | 0.398 µM | –
CCc1ccccc1OCC(O)C(C)NC(C)Cc1ccc(O)cc1 (stereo not shown) [Ex. 11, 3-methyl-3-[2-(4-hydroxyphenyl)-1-methylethylamino]-1-o-ethylphenoxy-propanol-2] | +18 beats/min. | 0.3 mg/kg | 0.5 mg/kg | 0.631 µM | –
C=CCc1ccccc1OCC(O)C(CC)NC(C)Cc1ccc(O)cc1 (stereo not shown) [Ex. 12, 3-ethyl-3-[2-(4-hydroxyphenyl)-1-methylethylamino]-1-o-allylphenoxy-propanol-2] | – | 5.1 mg/kg | 3.3 mg/kg | 0.251 µM | –
Cc1ccccc1OCC(O)C(C)NC(C)(C)Cc1ccc(O)cc1 (stereo not shown) [Ex. 13, 3-methyl-3-[2-(4-hydroxyphenyl)-1,1-dimethylethylamino]-1-o-methylphenoxy-propanol-2] | +9 beats/min. | 1.3 mg/kg | 8.5 mg/kg | 0.631 µM | –
C=CCc1ccccc1OCC(O)C(C)NC(C)(C)Cc1ccc(O)cc1 (stereo not shown) [Ex. 14, 3-methyl-3-[2-(4-hydroxyphenyl)-1,1-dimethylethylamino]-1-o-allylphenoxy-propanol-2] | +3 beats/min. | 2.5 mg/kg | 0.6 mg/kg | 0.0398 µM | –
Cc1cccc(OCC(O)CNC(C)Cc2ccc(O)cc2)c1 (stereo not shown) [Ex. 15, 3-[2-(4-hydroxyphenyl)-1-methylethylamino]-1-m-methylphenoxy-propanol-2] | +16 beats/min. | 0.3 mg/kg | 0.9 mg/kg | 6.31 µM | –
CCCc1ccccc1OCC(O)CNC(C)Cc1ccc(O)cc1 (stereo not shown) [Ex. 16, 3-[2-(4-hydroxyphenyl)-1-methylethylamino]-1-o-propylphenoxy-propanol-2] | +35 beats/min. | 1.3 mg/kg | 0.8 mg/kg | 0.158 µM | –
COCCc1ccc(OCC(O)CNC(C)C)cc1 (stereo not shown) [Metoprolol, metoprolol, reference compound] | 0 beats/min. | 0.2 mg/kg | 4.7 mg/kg | – | –
CC(C)NCC(O)COc1cccc2ccccc12 (stereo not shown) [Propranolol, propranolol, reference compound] | 0 beats/min. | 0.1 mg/kg | 0.1 mg/kg | – | –
